In US8518906B2, “Rho kinase inhibitors for treatment of mastocytosis and acute myeloid leukemia” (Indiana University Research & Technology Corporation, priority 2011, dated 2013):
Where two headings read alike, the source gives them in different places.

Legend:
[1] = human trials for cardiovascular indications; cited from earlier work
[2] = tested on: primary HSC/Ps bearing FLT3N51; assay: Proliferation, primary HSC/Ps transduced with FLT3N51; type: cell-based, C57BL/6 mice
Protocol: Retroviral supernatants for transduction of 32D and primary HSC/Ps were generated using the Phoenix ecotropic packaging cell line transfected with retroviral vector plasmids using a calcium phosphate transfection kit (Invitrogen, Carlsbad, Calif.). Supernatants were collected 48 hours after transfection and filtered through […] membranes. 32D cells were infected with 2 mL high-titer virus supernatant in the presence of polybrene (8 μg/mL) and IL-3 (10 ng/mL). Low density mononuclear cells (LDMNCs) were suspended in IMDM containing 20% FBS and 1% penicillin/streptomycin, and pre-stimulated in non-tissue culture plates supplemented with SCF (100 ng/mL), FL T3L (50 ng/mL), IL-6 (4 ng/mL), and Tpo (100 ng/mL) for 48 hours prior to retroviral infection on fibronectin fragments. After infection, 32D and primary HSC/Ps bearing the vector, WT or oncogenic receptors were sorted to homogeneity based on EGFP expression and used to perform all experiments.
To validate whether the suppression in growth of oncogene bearing cells by ROCK inhibitors observed in 32D cells also occurs in primary hematopoietic stem and progenitor cells (HSC/Ps), primary HSC/Ps from C57BL/6 mice were transduced with FLT3 or FLT3N51 and analyzed for proliferation in the presence or absence of ROCK inhibitors.

[3] = Protocol: After 48 hours of transplantation, mice were treated with vehicle (PBS) or H-1152 (66 mg/kg body weight) by oral gavage at 12 hours interval for 14 days. In the second study, mice were treated with vehicle, H-1152 (50 mg/kg body weight, oral gavage) or fasudil (25 mg/kg body weight, intraperitoneal) at 24 hour intervals for 21 days. […] After 10 days of transplantation, mice were treated with vehicle, H-1152 (50 mg/kg body weight, oral gavage) or fasudil (25 mg/kg body weight, intraperitoneal) at 24 hour intervals for 21 days. In all studies, mice were closely monitored for MPD and harvested at moribund. Bone marrow, spleen, liver and lungs were fixed in 10% buffered formalin and sections were stained with hematoxylin and eosin for histopathologic analysis.
[4] = tested on: mice transplanted with 32D cells bearing FLT3N51; assay: MPD and survival of mice transplanted with 32D cells bearing FLT3N51; type: in vivo, C3H/HeJ mice; settings: treated for 21 days starting two weeks after transplantation, vs PBS
Protocol: To further determine the efficacy of ROCK inhibitors in treating MPD due to activating mutations in receptor tyrosine kinases, similar pharmacological studies were performed using a different oncogene and a distinct ROCK inhibitor. 32D cells bearing FLT3N51 were transplanted into syngenic C3H/HeJ mice through tail vein. After two weeks of transplantation, mice were treated with PBS (vehicle), H-1152, or fasudil for 21 days and monitored for MPD and survival. […] After 5 weeks of prolonged survival compared to PBS treated mice, H-1152 or fasudil treated mice were sacrificed and further analysis were performed.

ROCK = ROCK activity (pMYPT1) in cells derived from AML and mastocytosis patients; type: cell-based, human
Excerpt: (§1) Blast cells from the bone marrow of patients with AML were obtained at the time of diagnostic testing. Approval was obtained from the institutional review boards of Indiana University School of Medicine. The buoyant fraction was isolated over Ficoll-Hypaque, and then washed with phosphate-buffered saline (PBS) before processing.
(§2) Specifically, the growth of HMC1.2 cells bearing the activating KIT mutation (KITV560G and KITD816V) and MV4-11 cells bearing the activating FLT3 mutation (FLT3-ITD) treated with H-1152 was determined.

32D cells bearing KIT = assay: F-actin content, 32D cells bearing KIT with IL-3; type: cell-based, murine; settings: in the presence of IL-3
Protocol: After treatment, cells were fixed with 4% paraformaldehyde in PBS for 15 min and washed with PBS. After fixing, cells were quenched with 0.1 M glycine in PBS for 15 min and washed with PBS. Then, cells were permeabilized with 0.2% Triton X-100 (w/v) in PBS for 10 min and washed with PBS followed by blocking non-specific binding sites with 5% rat serum containing 0.2% BSA in PBS. Cells were stained with FITC-conjugated phalloidin for 30 min, washed with 0.2% BSA in PBS, and analyzed by flow cytometry.

[5] = tested on: 32D cells bearing BCR-ABLT315I; assay: Proliferation, 32D cells expressing imatinib-resistant BCR-ABLT315I mutant; type: cell-based, murine
[6] = tested on: HMC1.2 cells (KITV560G and KITD816V); assay: Growth of HMC1.2 cells; type: cell-based, Human
Protocol: (§3) The murine IL-3 dependent and G418 resistant pro-B cell line BaF3 bearing FLT3 and FLT3N51 were cultured in medium containing IMDM supplemented with 10% FBS, G418 (2 mg/mL), and murine IL-3 (5 ng/mL). The Human mast cell leukemia line, bearing the KITV560G as well as KITD816V mutations, HMC1.2 and acute myeloid leukemia (AML) cell line, bearing the FLT3-ITD mutation, MV4-11 were obtained from the American Type Culture Collection (Manassas, Va.) and cultured in medium containing IMDM supplemented with 15% FBS and 1.2 mM monothioglycerol.
as §2

[7] = tested on: 32D cells bearing MIEG3 or KIT, BaF3 cells bearing FLT3; assay: Proliferation (thymidine incorporation), cells bearing MIEG3, KIT or FLT3 with IL-3; type: cell-based, murine; settings: cells bearing MIEG3, KIT or FLT3, in the presence of IL-3
Protocol: as §3
IL-3 enhances the growth of these cells.

[8] = tested on: cells bearing CHRD814V or CHRD814V-Y719; assay: Constitutive growth of cells bearing CHRD814V or CHRD814V-Y719; type: cell-based
Excerpt: (§4) Utilizing Chimeric KIT receptors (CHR) as template, we generated the mutant CHRD814V and CHRD814V with none (CHRD814V-F7) or single intracellular tyrosine add-back mutant at 719 (CHRD814V-Y719) using the Quick change Site-Directed Mutagenesis kit (Stratagene, La Jolla, Calif.) and the following primer pair (SEQ ID NO: 2: forward: 5′-[…]-3; SEQ ID NO: 3: reverse: 5′-[…]-3′). All of these mutated CHRD814V receptors were verified by direct sequencing.
(§5) CHRD814V-Y719 is similar to CHRD814V-F7 except that tyrosine residue 719 (the binding site for p85α) is preserved.

[9] = tested on: AKT, ERK, Stat5, PKA and PKC; assay: Activation of AKT, ERK, Stat5, PKA and PKC in oncogene bearing cells, Western blot; type: cell-based, murine
Protocol: Cells were lysed in lysis buffer and centrifuged at 10,000 rpm for 5 min at 4° C. Supernatants were collected and protein concentration was determined using the BCA protein assay (Thermo Fisher Scientific, Rockford, Ill.). Equal amounts of protein extracts were mixed with gel loading buffer and separated on SDS-polyacrylamide gels. After electrophoresis, the proteins were transferred onto nitrocellulose membranes and nonspecific binding was blocked with 5% nonfat dry milk in Tris-buffered saline containing 0.1% Tween-20 (TBS-T). Membranes were then probed with various antibodies overnight at 4° C. on a rocker. After incubation, membranes were washed with TBS-T and incubated with appropriate horseradish peroxidase (HRP)-conjugated secondary antibodies for 1 hour at room temperature. Finally, the proteins on the membranes were detected using SuperSignal West Dura Luminol/Enhancer solution (Thermo Fisher Scientific, Rockford, Ill.) and exposing the membranes to X-ray film.

[10] = tested on: cells bearing CHRD814V-F7; assay: Growth of cells bearing CHRD814V-F7 in the presence of IL-3; type: cell-based; settings: cells bearing CHRD814V-F7, in the presence of IL-3, data not shown
Excerpt: as §4, §5

[11] = tested on: cells derived from AML and mastocytosis patients; assay: Growth (thymidine incorporation) of cells derived from AML and mastocytosis patients; type: cell-based, human
Excerpt: as §1, §2

[12] = tested on: KIT or MIEG3 bearing 32D cells; assay: Cell death (annexin V and 7-AAD), KIT or MIEG3 bearing 32D cells; type: cell-based, murine
Protocol: 2×10^5 cells were plated in 24 well plates in the presence and absence of IL-3 and indicated concentrations of different ROCK inhibitors. Forty eight hours after treatment, cells were washed with PBS and the percentage of cell death was determined by annexin V and 7-AAO staining. Cells were re-suspended in 1× annexin V binding buffer and incubated for 30 min at 4° C. Cells were incubated with 5 μL each of annexin V and 7-AAO for 20 min at room temperature in the dark. After incubation, percentage of apoptotic cells (annexin V and 7-AAO positive) was determined using flow cytometry.
In this Example, the survival of oncogene bearing cells in the presence or absence of ROCK inhibitors was evaluated to determine how ROCK inhibitors might inhibit the growth of oncogene bearing cells.

MV4-11 cells (FLT3-ITD) = assay: Growth of MV4-11 cells; type: cell-based, Human
Protocol: as §3, §2

## O=S(=O)(c1cccc2cnccc12)N1CCCNCC1 [fasudil]
[1]
  toxicity upon ROCK inhibition in vivo: lack of toxicity
[2]
  proliferation (thymidine incorporation): significant reduction in the growth
[3]; mouse, in vivo
  signs of toxicity: no signs of toxicity
[4]
  spleen and liver weights: significantly reduced spleen and liver weights

## Cc1cncc2cccc(S(=O)(=O)N3CCCNC[C@@H]3C)c12 [H-1152]
ROCK
  ROCK activity: repression in ROCK activity
32D cells bearing KIT
  F-actin content: no effect on F-actin content
[5]
  growth of cells bearing BCR-ABLT315I: dose dependent suppression in growth
[6]
  growth of HMC1.2 cells: dose dependent reduction in growth
[2]
  proliferation (thymidine incorporation): significant reduction in proliferation
[7]
  proliferation (thymidine incorporation): minimal suppression in proliferation
[8]
  constitutive growth (thymidine incorporation): dose dependent inhibition in constitutive growth
[3]; treated mice
  signs of toxicity: no signs of toxicity
[9]; Example 1
  activation of AKT, ERK, Stat5, and PKC: no effect
[9]; Example 8
  activation of ERK, AKT, Stat5, PKA and PKC: relatively unperturbed
[4]
  spleen and liver weights: significantly reduced spleen and liver weights
  survival: significantly prolonged the survival
[10]
  growth: only a moderate suppression in growth
[11]
  growth (thymidine incorporation): repression in ROCK activity and growth
[12]
  cell death: 5-10%
MV4-11 cells (FLT3-ITD)
  growth of MV4-11 cells: dose dependent reduction in growth

## C[C@@H](N)[C@H]1CC[C@H](C(=O)Nc2ccncc2)CC1 [Y27632]
[2]
  proliferation (thymidine incorporation): significant reduction in the growth
